Measured values taken from US20100285959A1, “HERBICIDAL MIXTURES” (priority 2006, published 2010).

Tests used:
velvetleaf (ABUTH) [1] = experiment: Test 16 greenhouse, post- and preemergence; settings: 15 DAA
velvetleaf (ABUTH) [2] = experiment: Test 18 greenhouse, post- and preemergence; settings: 15 DAA
winter wheat (TRZAW) = experiment: Test 27 field trial, postemergence; assay type: in vivo, Triticum aestivum; settings: in vivo
Excerpt: (§1) Wheat seeds (cv. ‘Custer’) were planted in late fall season in a clay loam soil. Plots were 9 m long by 1.8 m wide. The field was managed using conventional tillage practices. […] All treatments also included a surfactant. […] Results are the means of the three replicates.

kochia (KCHSC) = experiment: Test 27 field trial, postemergence; assay type: in vivo, Kochia scoparia; design: scale not given here; settings: tribenuron-methyl 10 g a.i./ha
Excerpt: as §1

Row | Compound | Obs response, scale 0 to 100 (velvetleaf (ABUTH) [1]; Postemergence, 7.5 g a.i./ha) | Obs response, scale 0 to 100 (velvetleaf (ABUTH) [1]; Postemergence, 15 g a.i./ha) | Obs response, scale 0 to 100 (velvetleaf (ABUTH) [1]; Postemergence, 30 g a.i./ha) | Obs response, scale 0 to 100 (velvetleaf (ABUTH) [1]; Preemergence, 7.5 g a.i./ha) | Obs response, scale 0 to 100 (velvetleaf (ABUTH) [1]; Preemergence, 15 g a.i./ha) | Obs response, scale 0 to 100 (velvetleaf (ABUTH) [1]; Preemergence, 30 g a.i./ha) | Postemergence ABUTH Obs (velvetleaf (ABUTH) [2]; alone at 7.5 g a.i./ha) | Preemergence ABUTH Obs (velvetleaf (ABUTH) [2]; alone at 7.5 g a.i./ha) | Postemergence ABUTH Obs (velvetleaf (ABUTH) [2]; alone at 15 g a.i./ha) | Preemergence ABUTH Obs (velvetleaf (ABUTH) [2]; alone at 15 g a.i./ha) | Postemergence ABUTH Obs (velvetleaf (ABUTH) [2]; alone at 30 g a.i./ha) | Preemergence ABUTH Obs (velvetleaf (ABUTH) [2]; alone at 30 g a.i./ha) | also measured
1 | O=C(O)c1cc(Oc2ccc(C(F)(F)F)cc2Cl)ccc1[N+](=O)[O-] [Acifluorfen] | 0 | 0 | 0 | 0 | 2 | 2 |  |  |  |  |  |  | 
2 | C#CCOc1cc(-n2nc3n(c2=O)CCCC3)c(Cl)cc1Cl [Azafenidin] |  |  |  |  |  |  | 46 | 18 | 73 | 35 | 81 | 67 | Postemergence ABUTH Obs (velvetleaf (ABUTH) [2]; alone at 45 g a.i./ha): 86; Preemergence ABUTH Obs (velvetleaf (ABUTH) [2]; alone at 45 g a.i./ha): 68
3 | C#CCN1C(=O)COc2cc(F)c(N3C(=O)C4=C(CCCC4)C3=O)cc21 [Flumioxazin] | 36 | 47 | 52 | 58 | 65 | 93 |  |  |  |  |  |  | Obs response, scale 0 to 100 (velvetleaf (ABUTH) [1]; Postemergence, 45 g a.i./ha): 69; Obs response, scale 0 to 100 (velvetleaf (ABUTH) [1]; Preemergence, 45 g a.i./ha): 100
4 | Cc1nn(-c2cc(NS(C)(=O)=O)c(Cl)cc2Cl)c(=O)n1C(F)F [Sulfentrazone] |  |  |  |  |  |  | 10 | 0 | 19 | 3 | 44 | 28 | 
5 | COC(=O)c1ccccc1S(=O)(=O)NC(=O)N(C)c1nc(C)nc(OC)n1 [Tribenuron-methyl] |  |  |  |  |  |  |  |  |  |  |  |  | TRZAW Obs (winter wheat (TRZAW); cv. Custer, Triticum aestivum (winter wheat), 16 days after application): 0; TRZAW Obs (winter wheat (TRZAW); cv. Custer, Triticum aestivum (winter wheat), 28 days after application): 0; TRZAW Obs (winter wheat (TRZAW)): 0; KCHSC Obs (kochia (KCHSC); 16 DAA): 22; KCHSC Obs (kochia (KCHSC); 28 DAA): 23; KCHSC Obs (kochia (KCHSC); 49 DAA): 22
